Molecules are shown by their SMILES. Where two headings read alike, the source gives them in different places.

The test system of data set [1] is pooled human liver microsomes. As to the kind of experiment: RX-5902 metabolism in liver microsomes with CYP450 isozyme-selective chemical inhibitors. The data set is classed as in vitro ADME. Here is the method: Two in vitro studies were performed to examine the involvement of specific cytochrome P450 (CYP450) isozymes in the in vitro metabolism of RX-5902. In the first study, the loss of RX-5902 was measured after incubation with expressed CYP450 isozymes (1A2, 2A6, 2B6, 2C8, 2C9, 2C19, 2D6, 3A4 and 3A5). […] In the second study, RX-5902 was incubated with pooled human liver microsomes in the presence of CYP450 isozyme-selective chemical inhibitors. The inhibitors tested were selective for 1A2, 2A6, 2B6, 2C8, 2C9, 2C19, 2D6, and 3A4/5.
(In general: Liver microsomes are a subcellular fraction often used to study metabolism.)

Data set [2] has as its system human renal tumor xenografts (Caki-1). The data set is classed as in vivo. The conditions noted are these: oral; for TGI: 5 days on/2 days off, Day 21. The source says:
The efficacy of RX-5902 in human cancer xenograft mouse models is examined. Female nude mice (nu/nu, Harlan or CRL: NU(NCr)-Foxn1^nu, Charles River), 9-10 weeks old, with a body weight (BW) range of 15-30 g on day 1 of the study, are fed ad libitum water (reverse osmosis, 1 ppm C1), and NIH 31 Modified and Irradiated Lab Diet® consisting of 18.0% crude protein, 5.0% crude fat, and 5.0% crude fiber. The mice are housed on irradiated Enrich-o'Cobs™ Laboratory Animal Bedding in static microisolators on a 12-hour light cycle at 20-22° C. (68-72° F.) and 40-60% humidity. The study complies with the recommendations of the Guide for, Care and Use of Laboratory Animals with respect to restraint, husbandry, surgical procedures, feed and fluid regulation, and veterinary care.
Various human tumor cell lines (e.g., HCT116, HT29, H460, H69, Caki-1, CaSki, MiaPaca2, BxPC3 and Colo 205 cells [ATCC, Manassas, Va., USA]) are cultured according to ATCC's instruction. The tumor cells are cultured in tissue culture flasks in a humidified incubator at 37° C., in an atmosphere of 5% CO2 and 95% air.
The cells are harvested during exponential growth and re-suspended with phosphate buffered saline. Each test animal receives a subcutaneous (s.c.) injection of 5×10^6 tumor cells into the right flank and tumor growth is monitored as the average tumor size approaches the target range of 80-300 mm^3. When tumors reach the target size mice are randomized into several groups (n=10-20) and treatment with various regimens of RX-5902 or a positive (e.g., gemcitabine) or negative control (e.g.; vehicle, saline) is initiated. Tumors and body weights are measured regularly until the study is terminated.
Tumors are measured in two dimensions using calipers, and volume is calculated using the formula:
[formula] where w=width and 1=length, in mm, of the tumor. Tumor weight may be estimated with the assumption that 1 mg is equivalent to 1 mm^3 of tumor volume.
Treatment begins on Day 1 in eight groups of mice (n=10-20/group) with established subcutaneous tumors of a particular cell line. Each group is treated according to the study design. All doses are adjusted per body weight. Animals in each group are divided for efficacy and sampling purposes. There are also groups designated to vehicle control and no treatment for sampling purposes.
[…] […] Percent tumor growth inhibition (% TGI) is defined as the difference between the MTV of the designated control group (vehicle administration) and the MTV of the drug-treated group, expressed as a percentage of the MTV of the control group: % TGI=[1−(MTVdrug treated/MTVcontrol)]×100 The data set for TGI analysis includes all animals in a group, except those that die due to treatment-related (TR) or non-treatment-related (NTR) causes. An agent that produces at least 60% TGI in this assay is considered to be potentially therapeutically active.
Animals are monitored individually for tumor growth until Day 71. […] The time to endpoint (TTE) for each mouse is calculated with the following equation:
[formula] where b is the intercept and m is the slope of the line obtained by linear regression of a log-transformed tumor growth data set. […] In instances in which the log-transformed calculated TTE precedes the day prior to reaching endpoint or exceeds the day of reaching tumor volume endpoint, a linear interpolation is performed to approximate TTE. Any animal determined to have died from treatment-related (TR) causes is assigned a TTE value equal to the day of death. […]

Data set [3] can be described thus: Human safety and tolerability, dose-ranging study. The conditions noted are these: oral capsules. In kind it is in vivo. On the procedure: In a dose-ranging study, the pharmacokinetics (PK), safety and tolerability of RX-5902 at various oral doses were evaluated. Subjects with advanced or metastatic solid tumors were administered capsules containing RX-5902 at daily doses of 25-775 mg once weekly, 250-300 mg three times a week, 150-300 mg five times a week, or 300-350 mg seven times a week of RX-5902 for up to 6 dosing cycles. Each cycle consisting of 1-5 doses of RX-5902 per week for 3 weeks followed by 1 week of rest, or 5-7 doses of RX-5902 per week for 4 weeks without any rest per 4-week cycle. All but one subject had fasted from food for at least 8 hours before administration. One subject received 300 mg RX-5902 in fed state. Plasma concentrations were measured on Days 1 and 15, for 48 hrs, using a validated LC-MS/MS assay, and noncompartmental pharmacokinetic parameters were calculated using Phoenix WinNonlin, Version 6.4.

In the case of `COc1cc(OC)cc(N2CCN(C(=O)Nc3nc4cc(F)ccc4nc3OC)CC2)c1` [RX-5902, 4-(3,5-dimethoxyphenyl)-N-(7-fluoro-3-methoxyquinoxalin-2-yl)piperazine-1-carboxamide], the “inhibition of RX-5902 metabolism” value is on record as “Marked inhibition” in data set [1] (in the presence of a CYP3A4/5-selective inhibitor (ketoconazole)) and “no significant inhibition” in data set [1] (with inhibitors of the other isozymes (1A2, 2A6, 2B6, 2C8, 2C9, 2C19, 2D6)). For the same compound, the TGI (commonly the reduction of tumour growth relative to the control group) is 80% in data set [2] (50 mg/kg daily) and 96% in data set [2] (70 mg/kg daily). Further, the complete tumor regressions in data set [2] (70 mg/kg daily) is reported as 1/10. The partial tumor regressions in data set [2] (70 mg/kg daily) is 6/10. Besides, in data set [2] (50 and 70 mg/kg daily, both doses (P<0.0001)), the “overall survival of the animals” value is “extended the overall survival”. Also, in data set [3] (25-775 mg), the “most frequently reported adverse events” value was “mild nausea, vomiting and fatigue”. The tolerability result in data set [3] (at the tested dose levels (25-775 mg)) is on record as “well tolerated”.

The record behind these values is US9969698B2, “Quinoxalinyl-piperazinamide methods of use” (REXAHN PHARMACEUTICALS, INC., priority 2015, dated 2018).
